Laboratory results as given in PubChem BioAssay AID2060894 (Molecular Pharmacology Branch, DTP, NCI, 2025).
pIC50: −log10 of the molar value.

Tested on: K12877-001-R-J1-PDC complex spheroid viability
Test: Anticancer human tumor K12877-001-R-J1-PDC patient-derived lung adenocarcinoma cell line growth inhibition [RAS]
Conditions: for pIC50: curve of first compound; for viability, T/C: stronger effect = lower value
Source text: RAS pathway inhibitors in Combinations in Complex Spheroids
A high-throughput screen of multi-cell type tumor spheroids was designed to identify active combinations of RAS pathway inhibitors and targeted small molecules. Complex spheroids include a stromal component modeled by human endothelial cells (HUVEC) and fibroblasts modeled by human mesenchymal stem cells (MSCs). The concentration ranges selected for each drug and investigational agent were based upon clinically achievable concentrations if the clinical Cmax of the agent was known.
Compounds. The drugs and investigational agents: abemaciclib (NSC768073), cobimetinib (NSC768068), divarasib (GDC6063, NSC841802), docetaxel (NSC628503), GDC-1971 (RLY-1971, NSC841576), gemcitabine (NSC613327), inavolisib (NSC800729), ipatasertib (NSC767898), KB-0742 (NSC834161), MRTX-1133 (NSC836407), osimertinib (NSC779217), RMC-4630 (NSC839698), RMC-6236 (NSC851965), RMC-6291 (NSC852671), Ro-3306 (NSC812927), sapanisertib (NSC764658), SN-38 (NSC673596), staurosporine (NSC755774), SY5609 (NSC837396), and tovorafenib (DAY101, NSC766906), were obtained from the National Cancer Institute (NCI) Developmental Therapeutics Program Chemical Repository. The FDA-approved anticancer drug set is available from the NCI Developmental Therapeutics Program. […] The stock solutions were prepared in dimethyl sulfoxide (DMSO, Sigma-Aldrich, St. Louis, MO, cat. D2650) at 800-fold the tested concentration and stored at -70 degrees C prior to their use. All drugs and investigational agents were tested over a range starting from a high concentration at or near the clinical Cmax and decreasing in half-log increments. If the clinical Cmax for an agent had not been determined, the highest concentration tested was 10 microM.
Cell Culture. All cells were maintained in an incubator at 37 degrees C and 5% CO2 with 95% humidity. The PDC lines were cultured according to standard operating procedures established by the NCI PDMR. All PDCs were thawed and cultured in Matrigel-coated flasks prepared with a working solution of 1X Ham's F-12 nutrient mix, without supplementation (Invitrogen, Waltham, MA, cat. 11765054), 100 U/mL penicillin-streptomycin (Invitrogen, cat. 15140122), and 2.5% Matrigel (Corning Inc., Corning, NY, cat. 354248) for the first three passages. The 362531-283-R-J2-PDC and 782815-120-R-J1-PDC lines were cultured in 6C/Colon 1B media, which includes advanced DMEM/F-12 (Thermo Fisher Scientific, cat. 12634028), 10 mM HEPES (Thermo Fisher Scientific, cat. 15630080), 1X GlutaMAX supplement (Thermo Fisher Scientific, cat. 35050061), 0.1 mg/mL primocin (InvivoGen, San Diego, CA, cat. ant-pm-2), 10% defined fetal bovine serum, heat inactivated (HyClone Laboratories Inc., Logan, UT, cat. SH30070.03HI), 50% L-WRN conditioned media (ATCC, cat. CRL-3276), 1.25 mM N-Acetyl-L-cysteine (Sigma-Aldrich, cat. A9165), 10 mM nicotinamide (Sigma-Aldrich, cat. N0636), 1X B-27 supplement (Thermo Fisher Scientific, cat. 17504044), 1X N-2 supplement (Thermo Fisher Scientific, cat. 17502048), 50 ng/mL human EGF (Thermo Fisher Scientific, cat. PHG0311), and 10 microM Y-27632 dihydrochloride (Tocris Bioscience, cat. 1254). The K12877-001-R-J1-PDC line was cultured in 6I media, which includes all 6C/Colon 1B media plus 10 ng/mL human FGF-10 (PeproTech, cat. 100-26), 1 ng/mL human FGF-2 (PeproTech, cat. 100-18B), 1 µM prostaglandin E2 (Tocris Bioscience, cat. 2296), […] hydrocortisone (Sigma-Aldrich, cat. H4001), and […] bovine insulin (Sigma-Aldrich, cat. I6634). The K86415-001-R-J1-PDC line was cultured in 6D media, which includes all 6C/Colon 1B media components minus the L-WRN conditioned media. The 485176-168-R4-J1-PDC was cultured in PANC media, which includes all 6C/Colon 1B media plus 100 ng/mL human FGF-10 (PeproTech, cat. 100-26), 500 nM SB-431542 (Selleckchem, cat. S1067), and 10 nM gastrin (Tocris Bioscience, cat. 3006). […]

[1] = second compound 0.0316 µM, first compound 0.0316 µM
[2] = second compound 0.0316 µM, first compound 0.1 µM
[3] = second compound 0.0316 µM, first compound 0.316 µM
[4] = second compound 0.0316 µM, first compound 1 µM
[5] = second compound 0.0316 µM, first compound 3.16 µM
[6] = second compound 0.0316 µM, first compound 10 µM
[7] = second compound 0.1 µM, first compound 0.0316 µM
[8] = second compound 0.1 µM, first compound 0.1 µM
[9] = second compound 0.1 µM, first compound 0.316 µM
[10] = second compound 0.1 µM, first compound 1 µM
[11] = second compound 0.1 µM, first compound 3.16 µM
[12] = second compound 0.1 µM, first compound 10 µM
[13] = second compound 0.316 µM, first compound 0.0316 µM
[14] = second compound 0.316 µM, first compound 0.1 µM
[15] = second compound 0.316 µM, first compound 0.316 µM
[16] = second compound 0.316 µM, first compound 1 µM
[17] = second compound 0.316 µM, first compound 3.16 µM
[18] = second compound 0.316 µM, first compound 10 µM
[19] = second compound 1 µM, first compound 0.0316 µM
[20] = second compound 1 µM, first compound 0.1 µM
[21] = second compound 1 µM, first compound 0.316 µM
[22] = second compound 1 µM, first compound 1 µM
[23] = second compound 1 µM, first compound 3.16 µM
[24] = second compound 1 µM, first compound 10 µM
[25] = second compound 3.16 µM, first compound 0.0316 µM
[26] = second compound 3.16 µM, first compound 0.1 µM
[27] = second compound 3.16 µM, first compound 0.316 µM
[28] = second compound 3.16 µM, first compound 1 µM
[29] = second compound 3.16 µM, first compound 3.16 µM
[30] = second compound 3.16 µM, first compound 10 µM
[31] = second compound 10 µM, first compound 0.0316 µM
[32] = second compound 10 µM, first compound 0.1 µM
[33] = second compound 10 µM, first compound 0.316 µM
[34] = second compound 10 µM, first compound 1 µM
[35] = second compound 10 µM, first compound 3.16 µM
[36] = second compound 10 µM, first compound 10 µM
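Note: spheroids exposed to agents for one week before readout.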

CC1(O)CCCC1n1c(=O)c(C(F)F)cc2cnc(NC3CCN(S(C)(=O)=O)CC3)nc21 (stereo unspecified) + C#Cc1c(F)ccc2cc(O)cc(-c3ncc4c(N5CC6CCC(C5)N6)nc(OCC56CCCN5CC(F)C6)nc4c3F)c12
pIC50 (second compound 0.0316 µM): 5.48
pIC50 (second compound 0.1 µM): 5.51
pIC50 (second compound 0.316 µM): 5.41
pIC50 (second compound 1 µM): 5.40
pIC50 (second compound 3.16 µM): 5.38
pIC50 (second compound 10 µM): 5.46
viability, T/C [1]: 98.5%
viability, T/C [2]: 115%
viability, T/C [3]: 77.2%
viability, T/C [4]: 72.1%
viability, T/C [5]: 60.9%
viability, T/C [6]: 3.3%
viability, T/C [7]: 112%
viability, T/C [8]: 115%
viability, T/C [9]: 87.7%
viability, T/C [10]: 66%
viability, T/C [11]: 62.7%
viability, T/C [12]: 3.47%
viability, T/C [13]: 119%
viability, T/C [14]: 104%
viability, T/C [15]: 85.3%
viability, T/C [16]: 81.1%
viability, T/C [17]: 72.3%
viability, T/C [18]: 3.03%
viability, T/C [19]: 106%
viability, T/C [20]: 106%
viability, T/C [21]: 84.7%
viability, T/C [22]: 83%
viability, T/C [23]: 67.2%
viability, T/C [24]: 3.27%
viability, T/C [25]: 120%
viability, T/C [26]: 93.1%
viability, T/C [27]: 93.3%
viability, T/C [28]: 80%
viability, T/C [29]: 74.1%
viability, T/C [30]: 3.16%
viability, T/C [31]: 92%
viability, T/C [32]: 87%
viability, T/C [33]: 71.6%
viability, T/C [34]: 76.9%
viability, T/C [35]: 56.3%
viability, T/C [36]: 2.77%

CCC(CC)c1cc(NC2CCC(N)C2)n2nccc2n1 (stereo unspecified) + C#Cc1c(F)ccc2cc(O)cc(-c3ncc4c(N5CC6CCC(C5)N6)nc(OCC56CCCN5CC(F)C6)nc4c3F)c12
pIC50 (second compound 0.0316 µM): 5.81
pIC50 (second compound 0.1 µM): 5.77
pIC50 (second compound 0.316 µM): 5.79
pIC50 (second compound 1 µM): 5.74
pIC50 (second compound 3.16 µM): 5.80
pIC50 (second compound 10 µM): 5.84
viability, T/C [1]: 89.6%
viability, T/C [2]: 99.2%
viability, T/C [3]: 91.7%
viability, T/C [4]: 78.1%
viability, T/C [5]: 2.8%
viability, T/C [6]: 1.63%
viability, T/C [7]: 107%
viability, T/C [8]: 92.8%
viability, T/C [9]: 103%
viability, T/C [10]: 89.6%
viability, T/C [11]: 2.62%
viability, T/C [12]: 1.37%
viability, T/C [13]: 114%
viability, T/C [14]: 111%
viability, T/C [15]: 93.4%
viability, T/C [16]: 83.6%
viability, T/C [17]: 3.3%
viability, T/C [18]: 1.42%
viability, T/C [19]: 102%
viability, T/C [20]: 88.8%
viability, T/C [21]: 105%
viability, T/C [22]: 102%
viability, T/C [23]: 2.94%
viability, T/C [24]: 1.04%
viability, T/C [25]: 109%
viability, T/C [26]: 105%
viability, T/C [27]: 103%
viability, T/C [28]: 81.1%
viability, T/C [29]: 2.74%
viability, T/C [30]: 1.05%
viability, T/C [31]: 102%
viability, T/C [32]: 86.2%
viability, T/C [33]: 93.3%
viability, T/C [34]: 72.4%
viability, T/C [35]: 2.41%
viability, T/C [36]: 1.21%

CCN1CCN(Cc2ccc(Nc3ncc(F)c(-c4cc(F)c5nc(C)n(C(C)C)c5c4)n3)nc2)CC1 + C#Cc1c(F)ccc2cc(O)cc(-c3ncc4c(N5CC6CCC(C5)N6)nc(OCC56CCCN5CC(F)C6)nc4c3F)c12
pIC50 (second compound 0.0316 µM): < 6.00
pIC50 (second compound 0.1 µM): < 6.00
pIC50 (second compound 0.316 µM): < 6.00
pIC50 (second compound 1 µM): < 6.00
pIC50 (second compound 3.16 µM): < 6.00
pIC50 (second compound 10 µM): < 6.00
viability, T/C (second compound 0.0316 µM, first compound 0.00316 µM): 106%
viability, T/C (second compound 0.0316 µM, first compound 0.01 µM): 101%
viability, T/C [1]: 106%
viability, T/C [2]: 85.6%
viability, T/C [3]: 118%
viability, T/C [4]: 97.2%
viability, T/C (second compound 0.1 µM, first compound 0.00316 µM): 97.9%
viability, T/C (second compound 0.1 µM, first compound 0.01 µM): 102%
viability, T/C [7]: 113%
viability, T/C [8]: 97.8%
viability, T/C [9]: 118%
viability, T/C [10]: 88.4%
viability, T/C (second compound 0.316 µM, first compound 0.00316 µM): 115%
viability, T/C (second compound 0.316 µM, first compound 0.01 µM): 107%
viability, T/C [13]: 98.6%
viability, T/C [14]: 99.2%
viability, T/C [15]: 109%
viability, T/C [16]: 108%
viability, T/C (second compound 1 µM, first compound 0.00316 µM): 109%
viability, T/C (second compound 1 µM, first compound 0.01 µM): 113%
viability, T/C [19]: 96.7%
viability, T/C [20]: 104%
viability, T/C [21]: 108%
viability, T/C [22]: 82.2%
viability, T/C (second compound 3.16 µM, first compound 0.00316 µM): 108%
viability, T/C (second compound 3.16 µM, first compound 0.01 µM): 105%
viability, T/C [25]: 97%
viability, T/C [26]: 94.1%
viability, T/C [27]: 76.1%
viability, T/C [28]: 83.9%
viability, T/C (second compound 10 µM, first compound 0.00316 µM): 105%
viability, T/C (second compound 10 µM, first compound 0.01 µM): 84.8%
viability, T/C [31]: 90.4%
viability, T/C [32]: 92.3%
viability, T/C [33]: 87.2%
viability, T/C [34]: 56.7%
